The text below walks through data of patent publication US11917996B2, “Herbicidal compositions for animal grazelands and methods for applying the same” (DISCOVERY PURCHASER CORPORATION, priority 2018, dated 2024).

The conditions of data set [1]: pH 7; cited from earlier work.
Data set [2] can be described thus: Human safety risk assessment (aggregate dietary and non-dietary exposure, current EPA practice). Details: species or system US Population. The source says:
Human safety risk assessments have been conducted, using current EPA practice, for all the current and proposed new uses of indaziflam. Chronic aggregate dietary exposure (food and water) will utilize less than 4% of the cPAD for the US Population. Acute aggregate dietary exposure (food and water) for the U.S. population, utilizes 7% of the aPAD.

Data set [3] is described as follows: Ruminant metabolism studies with 14C-labelled indaziflam. Type of data set: in vivo, ruminants. The settings on record: [triazine-2,4-14C] and [indane-3-14C] indaziflam. The source says: Ruminant metabolism studies have been conducted with both [triazine-2,4-^14C] indaziflam and [indane-3-^14C] indaziflam according to current EPA guidelines. Accumulation into the edible tissues was low and the metabolism of indaziflam in ruminants is well understood.

The subject of another data set is cheatgrass. The data set can be described thus: Pre-emergence control of cheatgrass. Format: in vivo, Bromus tectorum. An excerpt: (§1) This provides land managers with a new opportunity to start the process of eliminating the annual grass seed bank. […] This makes indaziflam an effective tool to start the process of depleting the invasive annual grass soil seed bank. Furthermore, providing long-term control of annual grasses with indaziflam results in both reduced thatch that serves as fuel for highly destructive wildfires, and the effective creation of firebreaks that protect communities of desirable perennials. As a result, native ecosystems are promoted, allowing for increased habitat for animal species of concern including wildlife and pollinators.

The subject of a further data set is medusahead. Kind of data set: Pre-emergence control of medusahead. Format: in vivo, Taeniatherum caput-medusae.
Text: as §1

In a further data set the test system is ventenata. Kind of data set: Pre-emergence control of ventenata. Format: in vivo, Ventenata dubia.
Text: as §1

Data set [4] in a line: Dairy cow feeding study: total indaziflam residue in milk and tissues after 29 consecutive days of dosing. Type of data set: in vivo, lactating Holstein dairy cows (Bos taurus). The protocol: A feeding study was conducted to measure total indaziflam residue in milk, cream (milk fat), skim milk (whey), mesenteric (omental) fat, perirenal fat, subcutaneous fat, liver, kidney, muscle and excrement (feces or faeces) from lactating Holstein dairy cows (Bos taurus) following 29 consecutive days of dosing with indaziflam. The base daily dose of indaziflam was calculated to be 31 mg/kg dry matter feed. Four groups of cows were fed at 0 (control—two cows), 31 (1×—three cows), […] (3×—three cows) and 311 (10×—seven cows) mg/kg dry matter feed.
Milk was collected twice daily from all dose groups, morning and evening. Doses were administered after the morning milking. Milk was subsampled for analysis from the controls and all dose groups on study days 0, 2, 4, 7, 10, 14, 17, 21, 25, and 28. […]
The remaining cows (one control and four from the 10× dose level) entered the depuration phase of the study. […] Milk, tissues and excrement from the cows sacrificed at each interval were analyzed to monitor the decline of the residues of indaziflam and its metabolites. […]
The individual analyte derived residues were converted to indaziflam parent equivalents and summed to give a total indaziflam residue. The limit of quantitation (LOQ) for total indaziflam residue was 0.05 ppm for fat, kidney, muscle and liver. […]

Regarding `Cc1ccc2c(c1)[C@H](Nc1nc(N)nc(C(C)F)n1)[C@@H](C)C2` (mixture of isomers) [indaziflam, N2-[(1R,2S)-2,3-dihydro-2,6-dimethyl-1H-inden-1-yl]-6-[(1RS)-1-fluoroethyl]-1,3,5-triazine-2,4-diamine], the “log Kow” value in data set [1] was 2.8. In addition, the “Non-dietary and aggregate margins of exposure (food, drinking water, and non-dietary)” value in data set [2] is “above the Level of Concern”. For the same molecule, the “Acute aggregate dietary exposure (food and water), utilization of the aPAD” value in data set [2] (U.S. population) was 7 % of the aPAD. Further, the “Chronic aggregate dietary exposure (food and water), utilization of the cPAD” value in data set [2] (US Population, all current and proposed new uses) was “less than 4 % of the cPAD”. For the same molecule, the “Accumulation into the edible tissues” value in data set [3] is reported as “low”. Moreover, the “Pre-emergence effectiveness compared with imazapic” value with cheatgrass (cheatgrass), in the data set on medusahead and in the data set on ventenata was “significantly more effective” each time. For the same molecule, the “Long-term control of cheatgrass” value in the data set with cheatgrass (single application) is “at least three years”. In data set [4] (1× rate, Day 29, LOQ 0.05 ppm), the “Average total indaziflam residues in muscle” value is on record as “< LOQ”. Besides, the “Residues in all tissues and milk in the depuration phase” value in data set [4] (10× dose cows, 3 to 21 days after end of dosing) is “declined rapidly”.
